Patent US9173892B2, “Acadesine derivatives, products and compositions including same, therapeutic uses thereof, and methods for synthesizing same” (Universite Nice Sophia Antipolis, priority 2011, dated 2015)

Legend:
Assay type in all cases: cell-based, human
caspase-3 [1] = test: caspase-3 activity (Ac-DEVD-AMC) in K562 cells; conditions: 24 hours, imatinib 3 μM, AICAR 1 mM, 112 at 2.5 μM, 15, 23, 49 at 10 μM
Description: (§1) The cells are lyzed and 10 μg of proteins are placed in the presence of Ac-DEVD-AMC in a 96-well plate. The fluorescence emission at 460 nm resulting from the release of AMC is then recorded.

caspase-3 [2] = test: caspase-3 activity (Ac-DEVD-AMC) in ImaR cells; conditions: 24 hours, imatinib 3 μM, AICAR 1 mM, 112 at 2.5 μM, 15, 23, 49 at 10 μM
Description: as §1

ImaR cells [3] = test: cell viability (XTT) of imatinib-resistant ImaR cells
Description: (§2) The K562 leukemic cell line is obtained from the pleural effusion of a patient with CML. This line is a good model for studying this disease. […] The K562 and ImaR cells are cultivated at 37° C. under 5% CO2 in an RPMI 1640 medium containing 5% fetal bovine serum and supplemented with sodium pyruvate and antibiotics (penicillin-streptomycin).
(§3) FIGS. 1 to 4 reflect the study of the cell viability.
(§4) After the addition of XTT reagent, the absorbance is measured at 490 nm.
as §4

mTOR pathway [4] = test: western blot of 4E-BP1 phosphorylation (mTOR pathway), ImaR cells; conditions: 24 hours, imatinib 3 μM, AICAR 1 mM, 82, 112 at 2.5 μM, 15, 23, 191 at 10 μM
Description: (§5) The cells are lyzed and 30 μg of proteins are separated by SDS-PAGE (13% polyacrylamide gel) and analyzed by western blot with an antibody specific to the 4E-BP1 protein. The delayed gel migration observed reflects the level of phosphorylation of 4E-BP1.

K562 cells [5] = test: cell viability (XTT) of imatinib-sensitive K562 cells; conditions: K562
Description: as §2, §3, §4, §4, §4
After adding XTT reagent, the absorbance is measured at 490 nm.

cathepsin-B [6] = test: cathepsin-B activity (z-RR-AMC) in ImaR cells; conditions: 24 hours, AICAR 1 mM, 82, 112 at 2.5 μM, 15, 23, 191 at 10 μM
Description: (§6) The cells are lyzed and 5 μg of proteins are placed in the presence of z-RR-AMC in a 96-well plate. The fluorescence emission at 460 nm resulting from the release of AMC is then recorded.

ImaR cells [7] = test: western blot of apoptosis and autophagy markers, ImaR cells; conditions: 24 hours
Description: (§7) The cells are lyzed and 35 μg of proteins are separated by SDS-PAGE (12 or 14% polyacrylamide gel) and analyzed by western blot with antibodies specific to each of the markers.

K562 cells [8] = test: western blot of apoptosis and autophagy markers, K562 cells; conditions: K562, 24 hours, AICAR 1 mM
Description: as §7

cathepsin-B [9] = test: cathepsin-B activity (z-RR-AMC) in K562 cells; conditions: 24 hours, AICAR 1 mM, 82, 112 at 2.5 μM, 15, 23, 191 at 10 μM
Description: as §6

mTOR pathway [10] = test: western blot of 4E-BP1 phosphorylation (mTOR pathway), K562 cells; conditions: 24 hours, imatinib 3 μM, AICAR 1 mM, 82, 112 at 2.5 μM, 15, 23, 191 at 10 μM
Description: as §5

[11] = 0.5 mM, 24 or 48 hours, Example 1
[12] = 5, 10, 25 and 50 μM, compounds effective at concentrations as low as 5 μM
[13] = AICAR 1 mM, compounds 2.5 or 10 μM

## NC(=O)c1ncn([C@@H]2O[C@H](CO)[C@@H](O)[C@H]2O)c1N [AICAR, 5-aminoimidazole-4-carboxamide-1-β-D-ribofuranoside, reference compound]
caspase-3 [1]
  increase in the caspase-3 activity (factor with respect to the control): incapable of inducing this activation
caspase-3 [2]
  increase in the caspase-3 activity (factor with respect to the control): incapable of inducing this activation
ImaR cells [3]; [11]
  reduction in cell viability: cell viability loss
ImaR cells [3]; [12]
  efficacy in dose-response experiment (number of viable cells): ineffective
mTOR pathway [4]
  phosphorylation of 4E-BP1: total reduction
K562 cells [5]; [11]
  reduction in cell viability: cell viability loss
K562 cells [5]; [12]
  efficacy in dose-response experiment (number of viable cells): ineffective
cathepsin-B [6]
  increase in the cathepsin-B activity (factor): increase
ImaR cells [7]; AICAR 1 mM, 82, 86, 112 at 2.5 μM, 15, 23, 191 at 10 μM
  expression of p62/SQSTM1: increase in the expression
ImaR cells [7]; AICAR 1 mM, 82, 86 at 2.5 μM, 15, 23, 191, 49 at 10 μM
  LC3 cleavage (LC3-I into LC3-II): cleaved
ImaR cells [7]; [13]
  AMPK activation (level of phosphorylation): activated
  mTOR pathway: phosphorylation of the ribosomal protein S6: massive dephosphorylation
K562 cells [8]; 82, 86, 112 at 2.5 μM, 15, 23, 191 at 10 μM
  expression of p62/SQSTM1: increase in the expression
K562 cells [8]; 82, 86 at 2.5 μM, 15, 23, 191, 49 at 10 μM
  LC3 cleavage (LC3-I into LC3-II): cleaved
K562 cells [8]; compounds 2.5 or 10 μM
  AMPK activation (level of phosphorylation): activated
  mTOR pathway: phosphorylation of the ribosomal protein S6: massive dephosphorylation
cathepsin-B [9]
  increase in the cathepsin-B activity (factor): increase
mTOR pathway [10]
  phosphorylation of 4E-BP1: total reduction
